These results are taken from patent US7785900B1, “Glutathione beads and GST fusion proteins” (STC.UNM, priority 2006, dated 2010).

The target of assay [1] is T1, GST-Rab7 (Homo sapiens, UniProt P51149).
T1 construct: made in house; host or cells: bacteria
Put plainly: Competition of nucleotides with Bodipy-FL-GTP for bead-bound GST-Rab7. Type of assay: binding. To be noted: 10 nM GST-Rab7 preloaded, 1 μM GTP*. The source says: The signal to background levels are compatible with homogeneous analysis of the binding of the fluorescent GTP analog. Moreover, the assay is conservative with respect to protein, using <1 pmol of protein per well.

In assay [2] the target is T1, GST-Rab7. Put plainly: Bodipy-FL-GTP binding to and dissociation from bead-bound GST-Rab7. On the procedure: A fluorescent GTP-binding assay capable of being monitored by flow cytometry was developed and optimized using GST-Rab7 protein and Bodipy-FL-GTP (GTP*). […] Values are usually expressed as 1000 fluorescence equivalents of fluorescein in free solution (kMESF).
The binding of purified GST-Rab7 to bGSH was measured by using increasing concentrations (1.0-316.0 nM) of GST-Rab7 with a fixed amount of bGSH (−10,000 beads/reaction and excess (1.0 µM) GTP*).
In order to measure the rate of GTP* dissociation from bead-bound Rab7, bGSH were pre-loaded with 100 nM GST-Rab7 and incubated with 1 µM GTP* at 37° C. for 2 h. Dissociation of GTP* from the beads was then measured at 37° C. both for simple dilution with buffer as well as upon addition of 1000-fold higher (1 mM) non-fluorescent GTP (FIG. 6). The calculated half-time was 72.7s. The rate of dissociation in the presence of 1 mM unlabeled GTP alone was 9.6×10^−3s^−1.

Assay [3] has as its system Ras superfamily members. In words: Multiplex Bodipy-FL-GTP binding and GTP competition. The procedure: The Bodipy-FL-GTP binding assay established using wild-type GST-Rab7 was adapted for multiplex, high-throughput assays by Sklar and colleagues.
384-well microplates are configured with 64 control wells (columns 1 and 2 unblocked, and columns 23 and 24 with 1 mM GTP), leaving 320 wells to which test compounds are added as per the Roadmap compound plates supplied. Compounds from the molecular library and GTP controls are added in 5 μl, Bodipy-FL-GTP is added in 5 μl, and GST-G protein-coated beads are added in 5 μl. […] The bead sets are coated by mixing each “address level of red fluorescence” bead type individually in the presence of ˜60 nM GST-small G protein for two hours with 5,000 beads per microliter. The sets are then combined together, centrifuged, and resuspended just before addition to the assay plate. The beads are kept in suspension during the competitive assay using rotation at 22° C. for 2 hours, then the plate is read at room temperature at a cytometer.

Assay [4] has as its target Bcl-2 family proteins. To be noted: Oltersdorf et al., 2005; read-out: binding constant obtained earlier; cited from earlier work.
Assay [5] addresses GST-GFP (Schistosoma japonicum, UniProt P08515). In words: biochemical.
Description: The standard assay for monitoring the concentration of free glutathione was performed in ten microliters of HPSM buffer with 0.01% dodecyl maltoside added to reduce nonspecific binding. Typically, two microliters of 50 nM GST-GFP and two microliters of bead suspension containing 10,000 beads (as determined using a hemacytometer) were added to six microliters of buffer, with or without some competitor, giving 10 nM GST-GFP in the suspension. The ten microliter assays were gently shaken in wells of a 96 V-shaped well plate (Corning Costar #2897) on a vortex mixer in a cold room for two hours.
Assay [6] has as its system GST-Bcl-2 fusion proteins. Put plainly: FPA competition assay with FITC-Bid BH3 peptide. To be noted: 100 nM GST-Bcl-2 fusion proteins, 5 nM FITC-Bid BH3. The format is binding, human. On the procedure: 100 nM of GST-Bcl-2 fusion proteins were incubated with various concentrations of EGCG or control compound ECG (“C”) for 2 min in PBS buffer in 50 μL. Then, 5 nM FITC-conjugated-Bid BH3 peptide was added, bringing final volume to 100 μL and final DMSO concentration to 1%. Fluorescence polarization was measured after 20 minutes.
C1.3 FPA competition assay for Bcl-2-binding compounds. The green tea compound […] has been reported to bind Bcl-2 and Bcl-XL (Leone et al., 2003). The ability of EGCG to compete with fluorochrome-labeled BH3 peptides was confirmed by FPA. […] This compound therefore can serve as a positive control when performing high throughput screens of any compound library, including the NIH library.

T1 sequence (P51149 whole entry): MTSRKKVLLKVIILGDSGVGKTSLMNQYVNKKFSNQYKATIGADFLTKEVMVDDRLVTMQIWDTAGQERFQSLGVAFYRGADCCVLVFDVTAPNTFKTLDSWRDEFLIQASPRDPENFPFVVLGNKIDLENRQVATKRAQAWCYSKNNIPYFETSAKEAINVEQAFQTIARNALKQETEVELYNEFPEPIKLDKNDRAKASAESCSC
Chain of GST-GFP (P08515 2-218, added parts left off): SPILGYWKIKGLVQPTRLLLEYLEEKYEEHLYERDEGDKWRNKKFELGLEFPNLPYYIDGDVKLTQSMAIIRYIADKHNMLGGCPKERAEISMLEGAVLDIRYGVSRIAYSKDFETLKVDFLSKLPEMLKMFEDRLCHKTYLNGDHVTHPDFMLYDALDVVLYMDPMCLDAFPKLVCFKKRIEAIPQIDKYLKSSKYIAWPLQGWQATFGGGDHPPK

Molecule `Nc1nc2c(ncn2[C@@H]2O[C@H](COP(=O)(O)OP(=O)(O)O)[C@@H](O)[C@H]2O)c(=O)[nH]1` [GDP] returned a concentration giving a half-maximal response (EC50) in assay [1] of 560 nM.

Molecule `Cc1cc(C)n2c1C=C1C=CC(CCC(=O)NCCNC(=O)OC3C(COP(=O)(O)OP(=O)(O)OP(=O)(O)O)OC(n4cnc5c(=O)[nH]c(N)nc54)C3O)=[N+]1[B-]2(F)F` (stereo not drawn) [GTP*] showed a rate of dissociation in assay [2] (1 mM GTP alone, 37° C.) of 0.0096 s⁻¹. The affinity in assay [2] (GTP* binding to GST-Rab7), expressed as Kd, was 94 nM. Further, in assay [3] (fourplex), the specific binding affinities result is given as “within a factor of two of each other”. For the same molecule, the EC50s entry in assay [3] (sixplex, 25 or 50 nM Bodipy-FL-GTP) was “within the same order of magnitude”.

Take `CN(C)CC[C@H](CSc1ccccc1)Nc1ccc(S(=O)(=O)NC(=O)c2ccc(N3CCN(Cc4ccccc4-c4ccc(Cl)cc4)CC3)cc2)cc1[N+](=O)[O-]` [ABT737]: in assay [4], the Ki is less than 1 nM.

For `N[C@@H](CCC(=O)N[C@@H](CS)C(=O)NCC(=O)O)C(=O)O` [GSH, γ-glu-cys-gly], in assay [5], the EC50 came to 39000 nM and the Ki stood at 35000 nM.

Regarding `O=C(O[C@@H]1Cc2c(O)cc(O)cc2O[C@@H]1c1cc(O)c(O)c(O)c1)c1cc(O)c(O)c(O)c1` [ECGC, epigallecatechin], the “competition with FITC-Bid BH3 peptide” value in assay [6] is given as “binds to all six anti-apoptotic members of the Bcl-2-family, to variable extents”.

By EC50 is commonly meant the midpoint of the concentration-response curve. Read a high EC50 as a need for much substance. By Kd is commonly meant the equilibrium constant for the complex coming apart. A low value points to tighter binding.
